In PubChem BioAssay AID608 (Sanford-Burnham Center for Chemical Genomics, 2007):
Activity calls are given as the source filed them. The rule behind the calls is not given here.

Each molecule was assayed against Peptidyl-prolyl cis-trans isomerase FKBP1A (Homo sapiens) (UniProt P62942) (assay: small-molecule binding to FKBP12 – biophysical, NMR detection (AID 608)). Settings: purified FKBP12.
Chain of Peptidyl-prolyl cis-trans isomerase FKBP1A (Homo sapiens) (P62942 whole entry, looked up): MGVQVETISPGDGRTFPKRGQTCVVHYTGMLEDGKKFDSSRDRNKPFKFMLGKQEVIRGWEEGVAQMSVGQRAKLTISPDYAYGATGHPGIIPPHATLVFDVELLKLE
For `Nc1nnc(Cc2ccc(Cl)cc2)s1`, the Kd was > 4 mM (inactive). `NCc1cccc(-n2cccc2)c1` was tested, and the Kd was > 4 mM (inactive). With `CCC(CO)NC(=O)c1snnc1C` (stereo not given) the Kd was > 4 mM (inactive). For `CN(C)C(=O)Nc1ccc2c(c1)nnn2C`, the Kd was > 4 mM (inactive). `Nc1ccc2nccnc2c1` was tested, and the Kd was > 4 mM (inactive). `Cc1cc(C)n(CCC(=O)O)n1` was tested, and the Kd was > 4 mM (inactive). With `COc1ccc(S(=O)(=O)NCCO)cc1` the Kd was > 4 mM (inactive). In the case of `CC1=CC(=O)CC(C)(C)C1(O)/C=C/C(C)=C\C(=O)O` (stereo not given), the Kd is reported as > 4 mM (inactive). `NCc1ccc(-c2cccs2)s1` was tested, and the Kd was > 4 mM (inactive). `Nc1nc(NCc2ccco2)nn1-c1ccccc1` was tested, and the Kd was > 4 mM (inactive). `CCNC(=S)NS(=O)(=O)c1ccccc1` was tested, and the Kd was > 4 mM (inactive). With `O=C(NC1=NCCS1)c1ccc(Cl)s1` the Kd was > 4 mM (inactive). With `CCNC(=O)CC1Nc2ccccc2NC1=O` (stereo not given) the Kd was > 4 mM (inactive). For `Cc1cc(C)c(-c2cc(C(F)(F)F)no2)c(=O)[nH]1`, the Kd was > 4 mM (inactive). For `CCSc1nnc(-c2ccccc2N)c(=O)[nH]1`, the Kd was > 4 mM (inactive). With `c1ccc(-n2nnnc2-n2cnc3ccccc32)cc1` the Kd was > 4 mM (inactive). With `COc1cc(C(=S)N2CCC(C(N)=O)CC2)ccc1O` the Kd was > 4 mM (inactive). For `O=C1CN(C(=O)c2ccccc2)c2ccccc2N1`, the Kd was > 4 mM (inactive). In the case of `O=C(O)c1csc(-c2ccccc2)n1`, the Kd is reported as > 4 mM (inactive). `NC(=O)c1ccc(C(N)=O)c(-c2ccccc2)c1` was tested, and the Kd was > 4 mM (inactive). For `Nc1nc(-c2ccncc2)cs1`, the Kd was > 4 mM (inactive). For `COC(=O)NCc1cc2cc(Cl)ccc2[nH]1`, the Kd was > 4 mM (inactive). With `S=C(NC1CC1)NN1CCOCC1` the Kd was > 4 mM (inactive). In the case of `COC(=O)c1c(C)c2c(c(C)c1O)OC(=O)c1c(C)c(Cl)c(O)c(Cl)c1O2`, the Kd is reported as > 4 mM (inactive). `O=C(CSc1ncccn1)Nc1nccs1` was tested, and the Kd was > 4 mM (inactive). In the case of `CC(C)c1ccc(SCC(=O)N2CCOCC2)cc1`, the Kd is reported as 5e-05 mM. In the case of `O=C(O)CCc1nc2ccccc2[nH]c1=O`, the Kd is reported as > 4 mM (inactive). With `COc1cc(OC)c2c(=O)c(O)c(-c3ccc(OC)c(OC)c3)oc2c1` the Kd was > 4 mM (inactive). `Cc1ccccc1C(=O)Nn1cnnc1` was tested, and the Kd was > 4 mM (inactive). For `Cc1cc(OCC(=O)N2CC(C)OC(C)C2)cc(C)c1Cl` (stereo not given), the Kd was > 4 mM (inactive). For `NS(=O)(=O)c1ccc(NC(=O)c2cccs2)cc1`, the Kd was > 4 mM (inactive). In the case of `O=C1CN(C(=O)CN2CCOCC2)c2ccccc2N1`, the Kd is reported as > 4 mM (inactive). In the case of `O=c1c[n+]([O-])c2ccccc2n1OCc1ccccn1`, the Kd is reported as > 4 mM (inactive). With `O=C(O)CSc1nc2ccccc2c(=O)[nH]1` the Kd was > 4 mM (inactive). For `Cc1ccnc(NS(=O)(=O)c2cccs2)c1`, the Kd was > 4 mM (inactive). With `O=C1c2ccccc2C(=O)N1Cc1ccco1` the Kd was > 4 mM (inactive). With `CN(C)CCCN1CNC(=S)NC1` the Kd was > 4 mM (inactive). For `C=C1C2CC[C@@]3(C)[C@H](c4ccoc4)OC(=O)C[C@]13O[C@H]1CC(=O)C(C)(C)C(CC(=O)OC)C21C` (stereo not given in full), the Kd was > 4 mM (inactive). For `COc1ccc(C2CC(=O)NN2)cc1OC1CCCC1` (stereo not given), the Kd was > 4 mM (inactive). In the case of `O=C(NN1CCOCC1)c1cccs1`, the Kd is reported as > 4 mM (inactive). With `O=C(O)c1ccnn1-c1ccccc1` the Kd was > 4 mM (inactive). `Cn1cnc([N+](=O)[O-])c1Sc1ncnc2nc[nH]c12` was tested, and the Kd was > 4 mM (inactive). With `Cc1c(C(=O)Nn2cnnc2)oc2ccccc12` the Kd was > 4 mM (inactive). With `CC1CCc2cc(F)ccc2N1C(=O)c1ccc(=O)[nH]n1` (stereo not given) the Kd was > 4 mM (inactive). For `O=C(O)C(Cc1cnc[nH]1)N1C(=O)c2ccccc2C1=O` (stereo not given), the Kd was > 4 mM (inactive). For `O=C(c1ccccc1)N1CCNCC1`, the Kd was > 4 mM (inactive). In the case of `COc1cc([C@@H]2c3cc4c(cc3[C@H](OC(C)=O)[C@H]3COC(=O)[C@H]23)OCO4)cc(OC)c1OC`, the Kd is reported as > 4 mM (inactive). `CN1C(=O)/C(=C\c2ccc[nH]2)SC1=S` was tested, and the Kd was > 4 mM (inactive). With `Cc1nn(C)c(N2CCOCC2)c1N` the Kd was > 4 mM (inactive). With `COn1c(=O)c(-c2ccco2)[n+]([O-])c2ccccc21` the Kd was > 4 mM (inactive). `COc1cccc(NC(=O)c2cnn(C)c2Cl)c1` was tested, and the Kd was > 4 mM (inactive). For `CC(=O)N/N=C(\C)c1cccc(N)c1`, the Kd was > 4 mM (inactive). With `CC(=O)c1c(O)c(C)c(O)c2c1OC1=CC(=O)C(C(C)=O)C(=O)C12C` (stereo not given) the Kd was > 4 mM (inactive). In the case of `C/C(O)=c1/sc2cc(C)nc(=N)n2c1=O`, the Kd is reported as > 4 mM (inactive). For `O=c1/c(=C/c2cccs2)sc2ncnn12`, the Kd was > 4 mM (inactive). For `Cc1noc(C)c1C(=O)Nc1ccccn1`, the Kd was > 4 mM (inactive). `O=S(=O)(O)c1nc2ccccc2[nH]1` was tested, and the Kd was > 4 mM (inactive). `Fc1cccc(Cl)c1CN1CCCNCC1` was tested, and the Kd was > 4 mM (inactive). `[O-][n+]1onc2c1CCc1c-2nn(-c2ccccc2)[n+]1[O-]` was tested, and the Kd was > 4 mM (inactive). In the case of `C=C(C)[C@@H]1[C@H]2OC(=O)[C@@H]1[C@]1(O)C[C@H]3O[C@]34C(=O)O[C@H]2[C@]14C`, the Kd is reported as > 4 mM (inactive).
